Results: patent publication US8519123B2, “Pyrrolo[2,1-C][1,4]benzodiazepine linked imidazo[1,5-A]pyridine conjugates as potential antitumour agents and process for the preparation thereof” (Council of Scientific and Industrial Research, priority 2010, dated 2013)

Experiments:
[1] = test system: breast cancer cell line (MCF-7); test: In vitro cytotoxicity, MTT assay, 48 h continuous drug exposure; type: cell-based, human; details: 48 h exposure
Description: (§1) In vitro biological activity studies were carried out at the pharmacology division, IICT, Hyderabad. The compounds were evaluated for in vitro anticancer activity against five tumour cell lines derived from five cancer types (breast, cervix, mouse melanoma, lung and liver cancer) as shown in Table 2. For each compound, dose response curves for each cell line were measured at a minimum of five concentrations at 10 fold dilutions. A protocol of 48 h continuous drug exposure was used and a MTT assay was used to estimate cell viability or growth. The concentration causing 50% inhibition (IC50) compared with the control was calculated. Compounds 7a-7l have been evaluated for their in vitro cytotoxicity in five cell lines from five human cancer types. The results are expressed as IC50 determined relative to that of untreated control cells (Table-2).

[2] = test system: lung cancer cell line (A549); test: as above; type: cell-based, human; details: A549 cells, 48 h exposure
Description: as §1

[3] = test system: liver cancer cell line (Hepg2); test: as above; type: cell-based, human; details: Hepg2 cells, 48 h exposure
Description: as §1

[4] = test system: cervical cancer cell line (Hela); test: as above; type: cell-based, human; details: Hela cells, 48 h exposure
Description: as §1

[5] = test system: mouse melanoma cancer cell line (B16); test: as above; type: cell-based; details: B16 cells, 48 h exposure
Description: as §1

calf thymus DNA (CT-DNA) = test: Thermal denaturation studies with duplex-form calf thymus DNA (DNA binding affinity); details: [PBD]:[DNA] molar ratio 1:5, CT-DNA 100 μM, ligand 20 μM, sodium phosphate buffer pH 7.00; for (ΔTm ° C.) after incubation at 37° C. for 0 h: 0 h incubation at 37° C.; for (ΔTm ° C.) after incubation at 37° C. for 18 h: 18 h incubation at 37° C.
Description: Compounds have been subjected to thermal denaturation studies with duplex-form calf thymus DNA (CT-DNA) using a modification of a reported procedure (Newman, M. S. Carcinog-compr. Surv. 1976, 1, 203; (b) Hecht, S. S.; Loy, M.; Hoffman, Carcinog-compr. Surv. 1976, 1, 325). Working solutions in aqueous buffer (10 mM NaH2PO4/Na2HPO4, 1 mM Na2EDTA, pH 7.00+0.01) containing CT-DNA (100 μm in phosphate) and the PBD (20 μm) have been prepared by addition of concentrated PBD solutions in DMSO to obtain a fixed [PBD]/[DNA] molar ratio of 1:5. The DNA-PBD solutions have been incubated at 37° C. for 0 and 18 h prior to analysis. Samples have been monitored at 260 nm using a Beckman DU-800 spectrophotometer fitted with high performance temperature controller, and heated at 1° C. min^−1 in the 40-110° C. range. DNA helix→coil transition temperatures (Tm) have been obtained from the maxima in the d(A260)/dT derivative plots. Drug-induced alterations in DNA melting behavior are given by: ΔTm=Tm(DNA+PBD)−Tm(DNA alone), where the Tm value for the PBD-free CT-DNA is 69.1±0.01.
The DNA binding activity for these novel C8-linked imidazo[1,5-a]pyridine PBD hybrids has been examined by thermal denaturation studies using calf thymus (CT) DNA. […] The data for the compounds 7a-l is included in Table 1 for comparison.

[6] = Homo sapiens, MCF7, MCF-7 cells

Compound | IC50 [1, 6] [nM] | IC50 ([2]; Homo sapiens) [nM] | IC50 ([3]; Homo sapiens) [nM] | IC50 ([4]; Homo sapiens) [nM] | IC50 ([5]; Mus musculus) [nM] | (ΔTm ° C.) after incubation at 37° C. for 0 h (calf thymus DNA (CT-DNA)) [°C] | (ΔTm ° C.) after incubation at 37° C. for 18 h (calf thymus DNA (CT-DNA)) [°C] | IC50 ([3]; Homo sapiens, HepG2, 48 h) [nM] | IC50 ([4]; Homo sapiens, HeLa, 48 h) [nM] | IC50 [3] [nM] | IC50 ([1]; MCF-7 cells) [nM] | IC50 [2] [nM] | IC50 [4] [nM] | IC50 [5] [nM]
O=C(c1nc(-c2ccccc2)n2ccccc12)N1CCNCC1 [4a, (3-phenylimidazo[1,5-a]pyridin-1-yl)(piperazino)methanone] | > 100000 | > 100000 | > 100000 | > 100000 | > 100000 | 1.0 | 1.2 |  |  |  |  |  |  | 
COc1ccc(-c2nc(C(=O)N3CCNCC3)c3ccccn23)cc1 [4b, [3-(4-methoxyphenyl)imidazo[1,5-a]pyridin-1-yl](piperazino)methanone] | > 100000 | > 100000 | > 100000 | > 100000 | > 100000 | 1.1 | 1.2 |  |  |  |  |  |  | 
O=C(c1nc(-c2ccc(C(F)(F)F)cc2)n2ccccc12)N1CCNCC1 [4c, piperazino3-[4-(trifluoromethyl)phenyl]imidazo[1,5-a]pyridin-1-ylmethanone] | > 100000 | > 100000 | > 100000 | > 100000 | > 100000 | 0.1 | 0.4 |  |  |  |  |  |  | 
COc1cc2c(cc1OCCCN1CCN(C(=O)c3nc(-c4ccccc4)n4ccccc34)CC1)N=C[C@@H]1CCCN1C2=O [7a, (11aS)-7-methoxy-8-(3-4-[(3-phenylimidazo[1,5-a]pyridin-yl)carbonyl]piperazinopropoxy)-2,3,5,11a-tetrahydro-1H-benzo[e]pyrrolo[1,2-a]azepin-5-one] | 1200 | 7100 |  |  | 2800 | 6.0 | 8.9 | 2700 | 2100 |  |  |  |  | 
COc1cc2c(cc1OCCCCN1CCN(C(=O)c3nc(-c4ccccc4)n4ccccc34)CC1)N=C[C@@H]1CCCN1C2=O [7b, (11aS)-7-methoxy-8-(4-4-[(3-phenylimidazo[1,5-a]pyridin-yl)carbonyl]piperazinobutoxy)-2,3,5,11a-tetrahydro-1H-benzo[e]pyrrolo[1,2-a]azepin-5-one] | 2870 | 15900 |  |  | 2670 | 6.0 | 8.9 | 2830 | 1240 |  |  |  |  | 
COc1cc2c(cc1OCCCCCN1CCN(C(=O)c3nc(-c4ccccc4)n4ccccc34)CC1)N=C[C@@H]1CCCN1C2=O [7c] | 2120 |  |  |  | 1870 | 7.0 | 9.0 | 2700 | 1660 | 3860 |  |  |  | 
COc1cc2c(cc1OCCCCCCN1CCN(C(=O)c3nc(-c4ccccc4)n4ccccc34)CC1)N=C[C@@H]1CCCN1C2=O [7d] | 3310 | 12400 |  |  | 1490 | 7.0 | 8.0 | 3060 | 3970 |  |  |  |  | 
COc1cccc2c1C(=O)c1c(O)c3c(c(O)c1C2=O)C[C@@](O)(C(=O)CO)C[C@@H]3O[C@H]1C[C@H](N)[C@H](O)[C@H](C)O1 [ADR, adiramycin] |  |  |  |  |  |  |  |  |  | 1850 | 1600 | 2900 | 130 | 340
C1=CC2=CN=c3ccccc3=CN2C1 [DC-81, pyrrolo[2,1-c][1,4]benzodiazepine] | 2190 | 380 |  |  | 1830 | 0.3 | 0.7 | 2200 | 2140 |  |  |  |  | 
